What was measured:
H1618 and DMS79 cells = assay: IFN response activity assay: pre-treatment, SVV-GFP challenge, flow cytometry; details: then SVV-GFP 16 h, both cell lines; for GFP+ cells compared to untreated cells: 4 μM HDAC inhibitor pre-treatment 24 h
ANTXR1 KO H446 cells = assay: SVV-Cy5 binding experiment, flow cytometry; design: species or system human; details: SVV-Cy5 30 min at 37° C.
Procedure: (§1) SVV was incubated with the amine-reactive Cy5 dye (GE Healthcare) in sodium carbonate buffer (pH 9.3) for 1 h at room temperature (RT). Excess dye was removed by filtration through gel filtration columns (GE Healthcare) in HEPES buffer. Virus aliquots were stored at −80° C. parental, ANTXR1 KO, and TEX2 KO H446 cells were incubated with SVV-Cy5 for 30 min at 37° C. in OptiMEM. The non-permissive SCLC cell line, DMS114, was used as a negative control. […] All compensation and gating were performed with FlowJo analysis software (TreeStar) as described below.

DMS114 cells = assay: SVV-Cy5 binding experiment, flow cytometry; design: species or system human; details: SVV-Cy5 30 min at 37° C.; non-permissive negative control line
Procedure: as §1

TEX2 KO H446 cells = assay: SVV-Cy5 binding experiment, flow cytometry; design: species or system human; details: SVV-Cy5 30 min at 37° C.
Procedure: as §1

parental H446 cells = assay: SVV-Cy5 binding experiment, flow cytometry; design: species or system human; details: SVV-Cy5 30 min at 37° C.
Procedure: as §1

SVV = assay: Co-immunoprecipitation of SVV with Fc chimera proteins, Western blot; details: Fc protein on Protein G Dynabeads, SVV 2.0×10^10 vp, 2 h at 4° C.
SVV-GFP = assay: Blocking experiment: SVV-GFP pre-incubated with Fc protein, then added to parental H446 cells; details: 5 μg/mL Fc protein with SVV-GFP (MOI=5) on ice 1 h, then parental H446 cells overnight
[1] = molecular target: T1, Seneca Valley Virus (SVV) (Seneca Valley Virus, UniProt Q155Z9 674-937; Q155Z9 151-434; Q155Z9 435-673; Q155Z9 80-150); assay: co-immunoprecipitation on Protein G Dynabeads, Western blot with SVV rabbit antisera
T1 construct: domain: VP1;domain: VP2;domain: VP3;domain: VP4; also called SVV-001; WT SVV
T1 sequence 1: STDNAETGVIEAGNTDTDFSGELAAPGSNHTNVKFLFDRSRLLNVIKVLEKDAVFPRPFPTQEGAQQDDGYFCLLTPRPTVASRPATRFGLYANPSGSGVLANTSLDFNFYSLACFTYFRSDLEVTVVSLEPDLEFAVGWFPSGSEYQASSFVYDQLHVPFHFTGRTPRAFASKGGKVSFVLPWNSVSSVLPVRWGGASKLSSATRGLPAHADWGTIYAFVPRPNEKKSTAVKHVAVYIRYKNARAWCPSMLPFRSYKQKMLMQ
T1 sequence 2: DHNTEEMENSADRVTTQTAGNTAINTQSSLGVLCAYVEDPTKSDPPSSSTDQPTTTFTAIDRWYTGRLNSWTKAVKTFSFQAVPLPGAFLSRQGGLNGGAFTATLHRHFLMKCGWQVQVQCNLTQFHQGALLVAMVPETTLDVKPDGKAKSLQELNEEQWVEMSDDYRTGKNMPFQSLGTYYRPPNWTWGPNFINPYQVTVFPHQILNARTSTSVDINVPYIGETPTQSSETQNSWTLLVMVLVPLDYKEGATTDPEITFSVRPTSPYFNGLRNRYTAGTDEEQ
T1 sequence 3: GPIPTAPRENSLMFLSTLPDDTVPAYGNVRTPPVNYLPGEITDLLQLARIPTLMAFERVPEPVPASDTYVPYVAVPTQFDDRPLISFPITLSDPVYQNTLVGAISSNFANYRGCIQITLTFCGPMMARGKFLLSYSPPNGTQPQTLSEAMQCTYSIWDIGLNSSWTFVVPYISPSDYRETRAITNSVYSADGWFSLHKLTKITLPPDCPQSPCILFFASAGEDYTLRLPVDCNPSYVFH
T1 sequence 4: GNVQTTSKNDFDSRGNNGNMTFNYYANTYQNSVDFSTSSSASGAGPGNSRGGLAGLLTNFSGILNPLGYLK

Nc1ccccc1NC(=O)c1ccc(CNC(=O)OCc2cccnc2)cc1 [MS-275] was tested, and the “GFP+ cells compared to untreated cells” value (H1618 and DMS79 cells) was “significant increase”.

With O=C(CCCCCCC(=O)Nc1ccccc1)NO [SAHA, Vorinostat] the “GFP+ cells compared to untreated cells” value (H1618 and DMS79 cells) was “significant increase”.

In the case of IFNα, the “SVV permissive, or GFP+ cells” value (H1618 and DMS79 cells; 25 Units/mL IFN pre-treatment 24 h) is reported as “decrease”.

With “SVV-Cy5: WT SVV labeled with the fluorophore Cy5” the “mean fluorescence (MF)” value (ANTXR1 KO H446 cells) was 358, the “mean fluorescence (MF)” value (DMS114 cells) was 425 and the “mean fluorescence (MF)” value (TEX2 KO H446 cells) was 2,233. For the same molecule, the “mean fluorescence (MF)” value (parental H446 cells) was 2,373.

B1: ANTXR1-Fc (protein)
chain: EDGGPACYGGFDLYFILDKSGSVLHHWNEIYYFVEQLAHKFISPQLRMSFIVFSTRGTTLMKLTEDREQIRQGLEELQKVLPGGDTYMHEGFERASEQIYYENRQGYRTASVIIALTDGELHEDLFFYSEREANRSRDLGAIVYCVGVKDFNETQLARIADSKDHVFPVNDGFQALQGIIHSILKKSCIEILAAEPSTICAGESFQVVVRGNGFRHARNVDRVLCSFKINDSVTLNEKPFSVEDTYLLCPAPILKEVGMKAALQVSMNDGLSFISSSVIITTTHCSDGS
modifications: left off: a dimerising Fc or GST
B1 was tested, and the “SVV viral protein bands co-immunoprecipitated (direct interaction with SVV)” value (SVV) was “viral protein bands were observed” and the “GFP+ cells (SVV-GFP infection) by fluorescence microscopy” value (SVV-GFP) was “no detectable GFP+ cells”.

B2: ANTXR2-Fc chimera (Fc fusion)
chain: QEQPSCRRAFDLYFVLDKSGSVANNWIEIYNFVQQLAERFVSPEMRLSFIVFSSQATIILPLTGDRGKISKGLEDLKRVSPVGETYIHEGLKLANEQIQKAGGLKTSSIIIALTDGKLDGLVPSYAEKEAKISRSLGASVYCVGVLDFEQAQLERIADSKEQVFPVKGGFQALKGIINSILAQSCTEILELQPSSVCVGEEFQIVLSGRGFMLGSRNGSVLCTYTVNETYTTSVKPVSVQLNSMLCPAPILNKAGETLDVSVSFNGGKSVISGSLIVTATECSNG
notes: Bought reagent; also called ANTXR2-Fc chimeric protein; ANTXR2-Fc protein; not shown: Fc part of the chimera; the control isotype is an IgG1 Fc
B2: no binding [1].

B3: ANTXR2-Fc (protein)
chain: B2 chain
modifications: left off: a dimerising Fc or GST
In the case of B3, the “SVV viral protein bands co-immunoprecipitated (direct interaction with SVV)” value (SVV) is reported as “absence of an interaction” and the “GFP+ cells (SVV-GFP infection) by fluorescence microscopy” value (SVV-GFP) is reported as “high levels of GFP+ cells”.
